# Results published in patent publication US10981858B2, “Dendrimer and formulations thereof” (Priostar Pty Ltd, priority 2015, dated 2021).
# Entries after “also recorded” stand apart in the source; their conditions may differ.
# Tests used:
# Assay type in all cases: physicochemical
# [1] = 2,4-D/dendrimer hard water testing (clarity, sedimentation); details: 30° C.; for Appearance at Addition / Appearance/Sedimentation After 24 Hrs.: 2,4-D Amine in 342 ppm hard water
# Experimental: 342 ppm hard water was prepared as per CIPAC method MT18. The hard water was heated to 30° C. […]
# [2] = 2,4-D/dendrimer formulation stability study (crystallisation at 0° C.); details: for Crystallisation After 7 Days at 0° C. With Seeding: 2,4-D Amine 625 g/l seeded with 2,4-D Amine salt; for Crystallisation After 7 Days at 0° C.: without seeding
# Experimental: 20 ml of 2,4-D Amine(2,4-D 625 g/l market sample, Rygel, Adama Australia) was transferred to 25 ml clear vials and dendrimer added (with or without 30% Dithethylene Glycol). Caps were tightened to ensure no moisture entered the vials. Formulations were placed in a freezer at 0° C. […] In a related experiment, formulations were prepared with seeding with 2,4-D Amine salt (Shanghai Biochemical Sci. Ltd., purity 98 in order to hasten rate of crystallisation. The results are provided in Table 2.
# [3] = Solubilization of Methylated seed oil (MSO) in aqueous LA-9 solution; details: for Quantity MSO added to 10% LA-9 solution: 50 g, until hazy
# Experimental: 10% aqueous solution of Ethoxylated Lauryl alcohol-9 mole (water soluble surfactant) was prepared in Deionized water (5 g in 45 ml). Dendrimer compounds 1 and 4 were prepared 70:30 w/w in Diethylene glycol (DEG). The 10% Ethoxylated Lauryl alcohol-9 M (LA-9) solution was combined with dendrimer DEG solution at 80:20 and 60:40 w/w (total weight of 50 g).
# Methylated seed oil (MSO) (STEPOSOL-ROE-W, canola oil methyl ester, Stepan) was added dropwise under stirring to the 10% LA-9 solution (with or without dendimers), until the solution became hazy. Weight of MSO added was recorded.
# Cloud point studies = details: 1 gm. dendrimer solution (70:30 w/w dendrimer:Diethylene Glycol) in 99 gm. of 10% NaOH solution
# Experimental: 1 gm. of dendrimer solution (70:30 w/w dendrimer [Compound 1 or Compound 4]:Diethylene Glycol) was dissolved in 99 gm. of 10% NaOH solution in Deionized water and heated until hazy. Temperature of the solution was measured using calibrated thermometer.
# [4] = Water value of dendrimers with solvent (Solvesso 200); details: 50 g aqueous solution, 7% dendrimer and 3% DEG; until hazy
# Experimental: 50 g Aqueous solution of Dendrimer were prepared containing 7% dendrimer and 3% Diethylene glycol (DEG) by weight. Solvesso 200 (C10-13 aromatic hydrocarbon solvent) was added dropwise under stirring until the solution became hazy. Weight of Solvesso added was recorded.
# [5] = Dynamic viscosity of aqueous dendrimer solution (Brookfield); details: aqueous solution 7% dendrimer and 3% DEG, ambient temperature, spindle no. 63 at 50 rpm
# Experimental: 50 g aqueous solution of dendrimer (7% dendrimer and 3% DEG) was prepared in deionized water in a beaker, and subjected to dynamic viscosity measurement using Brookfield viscometer at ambient temperature. Viscosity studies were conducted using spindle no. 63 at 50 rpm. It was observed that viscosity of Compound-1 solution was 1.8 cps and Compound-4 solution was 0.6 cps.
# [6] = Tebuconazole 600 SC hard water testing: suspensibility, column thinning, sedimentation; details: 2 ml Tebuconazole 600 SC, dendrimer 0.7%, in 98 ml 342 ppm hard water, 30° C., 24 hours
# Experimental: (§1) Formulations were prepared by mixing water, surfactant, dispersing agent, wetting agent and antifoam together then gradually adding active. High shear mix for 20-30 minutes to disperse formulation ingredients in water before adding the active and mixing until homogeneous. The mixture was milled on a Dyno bead mill (1 m/s) with 0.4-0.6 mm beads at max. 40° C. until particle size was <4 um. Dendrimer compound (in DEG) was added and stirred for 20 minutes. Thickener and antimicrobial was then added and stirred for 20 minutes. Formulations were deaerated by sonication.
# 98 ml of 342 ppm hard water (prepared as per CIPAC method MT18) was heated to 30° C. before adding 2 ml. of Tebuconazole 600 SC formulation. Temperature was maintained at 30° C. for 24 hours and formulation characteristics were studied for suspension stability, wetting, column thinning/separation and sedimentation.
# [7] = Tebuconazole 600 SC wetting study in hard water; details: one drop Tebuconazole 600 SC, dendrimer 0.7%, in 342 ppm hard water at 30° C.
# Experimental: as §1
# Wetting studies were conducted by placing one drop of Tebuconazole 600 SC formulation in 342 ppm hard water at 30° C. and recording the time when all the formulation particles were wet and dispersed in water.
# [8] = Tebuconazole 600 SC formulation viscosity (Table 8); details: dendrimer 0.7%
# Experimental: as §1
# [9] = Additional tebuconazole formulations: suspension stability and viscosity; details: additional tebuconazole formulation, 0.8% additive
# Text: Additional formulations were developed, and formulation characteristics were studied for suspension stability, and viscosity.
# [10] = Imidacloprid 700SC formulation viscosity and stability; details: Imidacloprid 700 g/L formulation, dendrimer 20 g/L
# Experimental: Imidacloprid formulations were prepared by using high shear mixing to disperse formulation ingredients in 75% of the required water before adding the active and mixing until homogeneous. The mixture was milled on a bead mill (4 m/s) at 30-35° C. for 1 complete pass. Thickener, glycerine and residual water were then added under high shear mixing. Formulations were tested for viscosity (using a Brookfield LV viscometer) low temperature stability (0 C for 7 days) and RT stability. Many other dendrimers containing formulations prepared either solidified on milling or pre-milling Compound 4 reduced viscosity and provided greater formulation stability.
# [11] = 2,4-D Amine 625 g/l, dendrimer 2%
# [12] = 2,4-D Amine 625 g/l, dendrimer 5%
# [13] = 2,4-D Amine 625 g/l, dendrimer 10%
smiles,measurement,setting,value
"OCCN(CCO)CC(O)COCC(COCC(O)CN(CCO)CCO)(COCC(O)CN(CCO)CCO)COCC(COCC(O)CN(CCO)CCO)(COCC(O)CN(CCO)CCO)COCC(O)CN(CCO)CCO (centres unmarked) [Compound 4, 9,9′-(Oxybis(methylene))bis(9-((3-(bis(2-hydroxyethyl)amino)-2-hydroxypropoxy)methyl)-3,15-bis(2-hydroxyethyl)-7,11-dioxa-3,15-diazaheptadecane-1,5,13,17-tetraol)]",Appearance at Addition,"[1]; dendrimer 1.4% (w/w), 0.6% DEG",Clear
same,Appearance/Sedimentation After 24 Hrs.,"[1]; dendrimer 1.4% (w/w), 0.6% DEG",Clear
same,Appearance at Addition,[1]; dendrimer 2% (w/w),Clear
same,Appearance/Sedimentation After 24 Hrs.,[1]; dendrimer 2% (w/w),Clear
same,Appearance at Addition,"[1]; dendrimer 3.5% (w/w), 1.5% DEG",Clear
same,Appearance/Sedimentation After 24 Hrs.,"[1]; dendrimer 3.5% (w/w), 1.5% DEG",Clear
same,Appearance at Addition,[1]; dendrimer 5% (w/w),Clear
same,Appearance/Sedimentation After 24 Hrs.,[1]; dendrimer 5% (w/w),Clear
same,Appearance at Addition,"[1]; dendrimer 7% (w/w), 3% DEG",Clear
same,Appearance/Sedimentation After 24 Hrs.,"[1]; dendrimer 7% (w/w), 3% DEG",Clear
same,Appearance at Addition,[1]; dendrimer 10% (w/w),Clear
same,Appearance/Sedimentation After 24 Hrs.,[1]; dendrimer 10% (w/w),Clear
same,"Appearance of 2,4-D solutions in hard water","[1]; all concentrations tested (from 1.4 to 10%), 342 ppm hard water, 24 hours",clear
same,Crystallisation After 7 Days at 0° C. With Seeding,"[2]; dendrimer 1.4%, Diethylene Glycol 0.6%",Crystallised
same,Crystallisation After 7 Days at 0° C. With Seeding,[2]; dendrimer 2%,Crystallised
same,Crystallisation After 7 Days at 0° C. With Seeding,"[2]; dendrimer 3.5%, Diethylene Glycol 1.5%",Crystallised
same,Crystallisation After 7 Days at 0° C. With Seeding,[2]; dendrimer 5%,Crystallised
same,Crystallisation After 7 Days at 0° C. With Seeding,"[2]; dendrimer 7%, Diethylene Glycol 3%","remained stable; also recorded: No, Clear"
same,Crystallisation After 7 Days at 0° C. With Seeding,[2]; dendrimer 10%,"remained stable; also recorded: No, Clear"
same,Crystallisation at 0° C. without seeding,"[2]; 2,4-D Amine 625 g/l, all levels of dendrimer tested",did not result in crystallisation
same,Crystallisation After 14 Days at 0° C.,"[2]; 2,4-D Amine 625 g/l, dendrimer 1.4%, Diethylene Glycol 0.6%",Crystallised
same,Crystallisation After 14 Days at 0° C.,[2]; [11],Crystallised
same,Crystallisation After 14 Days at 0° C.,"[2]; 2,4-D Amine 625 g/l, dendrimer 3.5%, Diethylene Glycol 1.5%",No
same,Crystallisation After 14 Days at 0° C.,[2]; [12],Crystallised
same,Crystallisation After 14 Days at 0° C.,"[2]; 2,4-D Amine 625 g/l, dendrimer 7%, Diethylene Glycol 3%",No
same,Crystallisation After 14 Days at 0° C.,[2]; [13],No
same,Crystallisation After 7 Days at 0° C.,[2]; [11],No
same,Crystallisation After 7 Days at 0° C.,[2]; [12],No
same,Crystallisation After 7 Days at 0° C.,[2]; [13],No
same,Increase in solubilisation of Methylated seed oil in aqueous solution,[3],110%
same,Quantity MSO added to 10% LA-9 solution,"[3]; ratio LA-9 solution:dendrimer/DEG solution 60:40 (w/w), 28% dendrimer (w/w)",0.81 g
same,Quantity MSO added to 10% LA-9 solution,"[3]; ratio LA-9 solution:dendrimer/DEG solution 80:20 (w/w), 14% dendrimer (w/w)",0.92 g
same,Cloud point (temperature at which solution turned hazy),Cloud point studies,greater than 80 °C
same,Quantity Solvesso 200 added,[4],2.15 g
same,Dynamic viscosity,[5],0.6 cps
same,Suspensibility: Sediment,[6],<0.5 mL⁻¹
same,Suspensibility: nature of sediment,[6],Compact
same,Suspensibility: Column Thinning,[6]; top thinning,No
same,Wetting,[7],9.9 s
same,Viscosity 0 C.,[8]; 0 C.,744
same,Viscosity 54 C.,[8]; 54 C.,730
same,Viscosity RT,[8]; RT,730 cP
same,Observation: sediment at 0 C.,[9]; 0 C.,"No sediment at 0 C.,"
same,Viscosity (cP) 0 C.,[9]; 0 C.,514 cP
same,Observation: sediment at RT,[9]; RT,"fluffy, low sediment"
same,Viscosity (cP) RT,[9]; RT,672 cP
same,Observation: sediment at 0 C.,[10]; 0 C for 7 days,"No sediment at 0 C.,"
same,Viscosity (cP) 0 C.,"[10]; 0 C., Brookfield LV viscometer",552 cP
same,Observation: sediment at RT,[10]; RT,"fluffy, low sediment at RT"
same,Viscosity (cP) RT,"[10]; RT, Brookfield LV viscometer",574 cP
